According to patent US8017828B2, “Utilization of rare sugars in plant or microorganism” (Shikoku Research Institute Incorporated, priority 2004, dated 2011):

What was measured:
[1] = tested on: strawberry plant (variety: “smile ruby”); test: Foliar spraying of sugar on potted strawberry, fruit harvest; format: in vivo; conditions: 0.5% (w/v) sprayed three times weekly
Protocol: A strawberry plant (variety: “smile ruby”) was used in an experiment. The strawberry plants were planted in pots and from Feb. 13, 2004, while the cultivation was carried out in a glass house, water or a 0.5% (w/v) sugar solution was sprayed onto the whole plant on a three times weekly basis. As for the types of sugars, D-glucose and D-psicose were used and two pots were cultivated for each test plot. While the cultivation was continued, the number of fruits, the weight of fruits, the sugar content of fruits were measured with regard to the fruits that could be harvested by Mar. 25, 2004.

Vitis kiusiana Momiyama = test: Bud flush of dormant branch cuttings of wild grape; format: in vivo
Protocol: Matured branches of a Japanese wild grape Vitis kiusiana Momiyama, in which rooting of cuttings is difficult (Mochioka et al., Plant Tissue Culture 13: 139-145, 1996; Journal of ASEV JAPAN 13: 2-8, 2002) and dormancy of buds is deep (Mochioka et al., Journal of Japanese Society for Horticultural Science, 65: 49-54, 1996) were collected in January during the dormant stage, and stored under refrigeration in such a manner that they were not dried. On March 11, they were prepared to have one bud. After each cutting base was immersed in a 3% aqueous solution of D-psicose (supplemented with a spreading agent, Approach BI at 0.2%) for 24 hours, on the following day March 12, it was planted in a Vermiculite bed and placed in a temperature-controlled chamber at 25° C. and 16-hour day length, and the bud flush rate with time was measured. The timing of bud flush was determined to be a time when bud scale leaves fall off and about 50% of the tomentum that protects the bud appears. In a control plot, the cutting base was immersed in distilled water supplemented with 0.2% Approach BI for 24 hours, and then, subjected to the same treatment as described above.
In the survey of the bud flush rate, 9 cuttings were used for each plot and the procedure was repeated three times and an average was obtained.

[2] = tested on: tomato (Home Momotaro), sunny lettuce (Red Wave), morning glory (Tairin Zaki Kongo); test: Seed germination, short-time and continuous treatment (Experiment 2); format: in vivo; conditions: continuous treatment with 1%
Protocol: In order to clarify an effect of a short-time treatment, 50 seeds of Salsola komarovii, tomato (Home Momotaro) and sunny lettuce (Red Wave), and 20 seeds of morning glory (Tairin Zaki Kongo) were immersed in any of deionized water, 1% D-psicose, 1% D-allose and 1% L-galactose for 24 hours (25° C., dark), respectively, then, they were lightly washed with deionized water. Then, the seeds were sown in a dish with a diameter of 9 cm having a filter paper placed therein, and germinated under the same condition by poring 5 to 10 ml of deionized water therein. Further, for the comparison, a continuous treatment with 1% D-psicose was carried out in accordance with the same procedure.

[3] = tested on: cherry tomato plant “mini carol”; test: Hydroponic growth of cherry tomato with D-psicose 0.001-0.03%; format: in vivo; conditions: for number of flower clusters compared with the control plot: control plot 2.0
Protocol: On Jun. 10, 2003, a cherry tomato plant “mini carol” was transplanted for permanent planting to a hydroponic apparatus, and from 7 days after the permanent planting, 4 treated plots (0%, 0.001%, 0.01% and 0.03%) were prepared by adding D-psicose to a nutrient culture solution. A survey was carried out with regard to the growth at […] after the treatment (July 22). […] The fresh weight was larger in the plot of 0.001%, and was smaller in the plot of 0.03% compared with the control plot. When the fresh weight was seen according to the parts, roots and leaves were larger in the plot of 0.001%.

Fusarium oxysporum = test: Table 12: plants with or without Fusarium oxysporum, seed and medium treated with D-psicose; format: in vivo
[4] = tested on: Fusarium oxysporum IFO 9967 strain; test: Infection of treated tomato seeds on agar with Fusarium oxysporum; format: in vivo, tomato plant (variety: “House Momotaro”)
Protocol: Therefore, by using a tomato plant and a strain of Fusarium oxysporum, which is a typical pathogenic bacterium of tomato, an effect of D-psicose during infection was examined.
To be more specific, seeds of a tomato plant (variety: “House Momotaro”) were subjected to an immersion treatment by immersing them in a D-psicose solution at a concentration of from 0.01% (w/v) to 0.1% (w/v) for 15 minutes while stirring slowly, followed by air-drying on sterile gauze, and then used as treated seeds. At the center of a plastic dish with a diameter of 9 cm filled with 25 ml of 1% (w/v) agar, a mycelial disc (diameter: 1 cm) obtained by pushing out Fusarium oxysporum (IFO 9967 strain and IFO 31213 strain) cultured for 1 week on a potato dextrose agar medium using a cork borer along with the agar medium was placed, and 10 seeds of the above treated seeds were placed equally spaced around the disc. At this time, test plots in which D-psicose was added to the agar medium at a concentration of from 0.01% (w/v) to 0.1% (w/v) were prepared. Then, the dishes were placed at 23° C. under the dark condition for 7 days to 10 days, and observation was carried out with regard to the elongation of shoot, the elongation of root, the shoot development rate, the infection state in root and the like.

[5] = Fusarium oxysporum added, D-psicose seed 0.01%, medium 0.01%
[6] = Fusarium oxysporum added, D-psicose seed 0.01%, medium non
[7] = Fusarium oxysporum added, D-psicose seed 0.10%, medium 0.10%
[8] = Fusarium oxysporum added, D-psicose seed 0.10%, medium non
[9] = Fusarium oxysporum without addition, D-psicose seed 0.10%, medium non
[10] = D-psicose seed 0.01%, medium 0.01%
[11] = D-psicose seed 0.01%, medium non
[12] = D-psicose seed 0.05%, medium 0.05%
[13] = D-psicose seed 0.05%, medium non
[14] = D-psicose seed 0.10%, medium 0.10%
[15] = D-psicose seed 0.10%, medium non
[16] = seeds treated, and seeds treated plus agar medium

SMILES: O=C(CO)[C@H](O)[C@H](O)[C@H](O)CO [D-psicose]
- average weight of fruits ([1]; increased from 13.5 g): 16.6 g
- number of fruits that could be harvested during the cultivation period ([1]; increased from 25): 38
- total weight of fruits that could be harvested ([1]; increased from 337.8 g): 630.3 g
- bud flush rate compared with control plot (Vitis kiusiana Momiyama; 3% aqueous solution 24 hours, whole period): higher
- timing of bud flush (Vitis kiusiana Momiyama; cutting base immersed in 3% aqueous solution 24 hours, control mid-April): from late March
- germination [2]: inhibited
- fresh weight compared with the control plot ([3]; 0.001%): larger
- maximum root length compared with the control plot ([3]; 0.001%): slightly longer
- number of leaves compared with the control plot ([3]; 0.001%): slightly larger
- stem length compared with the control plot ([3]; 0.001% in nutrient culture solution): slightly longer
- number of flower clusters compared with the control plot ([3]; 0.001%): slightly larger
- maximum root length compared with the control plot ([3]; 0.01%): slightly shorter
- stem diameter compared with the control plot ([3]; 0.01%): slightly larger
- stem length compared with the control plot ([3]; 0.01%): slightly longer
- fresh weight compared with the control plot ([3]; 0.03%): smaller
- maximum root length compared with the control plot ([3]; 0.03%): slightly shorter
- number of leaves compared with the control plot ([3]; 0.03%): slightly smaller
- stem diameter compared with the control plot ([3]; 0.03%): slightly smaller
- stem length compared with the control plot ([3]; 0.03%): slightly shorter
- number of flower clusters compared with the control plot ([3]; 0.03%): slightly smaller
- Aerial part weight (Fusarium oxysporum; [5]): 3.1 g
- Leaf browning ratio (Fusarium oxysporum; [5]): 5%
- Plant length (Fusarium oxysporum; [5]): 17.6 cm
- Survival rate (Fusarium oxysporum; [5]): 50%
- Vascular bundle browning ratio (Fusarium oxysporum; [5]): 45%
- Aerial part weight (Fusarium oxysporum; [6]): 1.9 g
- Leaf browning ratio (Fusarium oxysporum; [6]): 100%
- Plant length (Fusarium oxysporum; [6]): 14.5 cm
- Survival rate (Fusarium oxysporum; [6]): 28%
- Vascular bundle browning ratio (Fusarium oxysporum; [6]): 39%
- Aerial part weight (Fusarium oxysporum; [7]): 3.3 g
- Leaf browning ratio (Fusarium oxysporum; [7]): 13%
- Plant length (Fusarium oxysporum; [7]): 13.8 cm
- Survival rate (Fusarium oxysporum; [7]): 25%
- Vascular bundle browning ratio (Fusarium oxysporum; [7]): 38%
- Aerial part weight (Fusarium oxysporum; [8]): 2.2 g
- Leaf browning ratio (Fusarium oxysporum; [8]): 100%
- Plant length (Fusarium oxysporum; [8]): 13.9 cm
- Survival rate (Fusarium oxysporum; [8]): 16%
- Vascular bundle browning ratio (Fusarium oxysporum; [8]): 60%
- Aerial part weight (Fusarium oxysporum; [9]): 2.2 g
- Leaf browning ratio (Fusarium oxysporum; [9]): 0%
- Plant length (Fusarium oxysporum; [9]): 17.8 cm
- Survival rate (Fusarium oxysporum; [9]): 100%
- Vascular bundle browning ratio (Fusarium oxysporum; [9]): 0%
- Root length [4, 10]: 4.5 cm
- Shoot length [4, 10]: 5.2 cm
- Root length [4, 11]: 4.1 cm
- Shoot length [4, 11]: 5.1 cm
- Root length [4, 12]: 3.7 cm
- Shoot length [4, 12]: 5.7 cm
- Root length [4, 13]: 3.3 cm
- Shoot length [4, 13]: 3.4 cm
- Root length [4, 14]: 2.0 cm
- Shoot length [4, 14]: 3.8 cm
- Root length [4, 15]: 3.7 cm
- Shoot length [4, 15]: 4.3 cm
- browning caused by infection of roots with Fusarium oxysporum [4, 16]: reduction
- shoot development rate [4, 16]: improvement
